Test results: patent publication US20260250318A1, “COMPOSITIONS AND METHODS FOR CROSSING THE BLOOD BRAIN BARRIER” (VOYAGER THERAPEUTICS, INC., priority 2022, published 2026)

Tested on: brains, heart, liver, muscle, and DRG of the NHPs
Assay: Maturation of TTM-001 and TTM-002 capsids, NGS enrichment in NHP tissues
Type: in vivo
From the text: This Example describes maturation of the AAV9 capsid variants, TTM-001 (SEQ ID NO: 981 (amino acid) and 983 (DNA), comprising SEQ ID NO: 941 (encoded by SEQ ID NO: 942)) and TTM-002 (SEQ ID NO: 982 (amino acid) and 984 (DNA), comprising SEQ ID NO: […] (encoded by SEQ ID NO: 944)) in NHPs to further enhance their transduction and biodistribution in the central nervous system as well as other tissues, and evolve the AAV capsid variants to provide further cross-species compatibility. Two approaches were used to mature the TTM-001 and TTM-002 capsid sequences in order to randomize and mutate within and around the peptide insert comprised within loop IV of the capsid variant. […] In the first maturation approach, sets of three contiguous amino acids were randomized across the mutagenesis region in the TTM-001 and TTM-002 sequences, which spanned from position 450 to position 466, numbered according to SEQ ID NO: 981 and 982. In the second maturation approach, mutagenic primers were used to introduce point mutations at a low frequency, scattered across the mutagenesis region in the TTM-001 and TTM-002 sequences ranging from position 449 to position 466, numbered according to SEQ ID NO: 981 and 982. AAV capsid variants arising from each maturation approach for TTM-001 and TTM-002 were pooled together, for subsequent testing and characterization in NHPs.
The library of pooled matured AAV capsid variants generated using the first maturation approach and the second maturation approach for the TTM-001 and TTM-002 AAV capsid variants were injected into two NHPs. […] Following RNA recovery and RT-PCR amplification, a systematic NGS enrichment analysis was performed to calculate the fold enrichment ratio relative to an AAV9 control, and the peptides comprised within the variants were identified.
Following the RNA recovery and NGS analysis from the second maturation approach, approximately 680,000 capsid variants were identified. The 680,000 matured capsid variants were then filtered based on samples with a raw virus count greater than 10 and a coefficient of variance (CV) of less than 1, which was calculated for each peptide across the brain samples taken from the two NHPs. […] Using this filtering criteria, this led to approximately 64,000 matured capsid variants.

[1] = NHP DRG, NGS, relative to AAV9 control
[2] = NHP brain, NGS, relative to AAV9 control
[3] = NHP heart, NGS, relative to AAV9 control
[4] = NHP liver DNA, NGS, relative to AAV9 control
[5] = NHP liver RNA, NGS, TTM-001 and TTM-002 matured AAV capsid variants, relative to AAV9 control
[6] = NHP muscle, NGS, relative to AAV9 control
[7] = NGS fold-enrichment, DRG, NHP, relative to AAV9
[8] = NGS fold-enrichment, brain, NHP, relative to AAV9
[9] = NGS fold-enrichment, heart, NHP, relative to AAV9
[10] = NGS fold-enrichment, liver DNA, NHP, relative to AAV9
[11] = NGS fold-enrichment, liver RNA, NHP, relative to AAV9
[12] = NGS fold-enrichment, muscle, NHP, relative to AAV9

| Sequence | Fold Enrichment relative to AAV9, DRG (NHP) [1] [fold] | Fold Enrichment relative to AAV9, Brain (NHP) [2] [fold] | Fold Enrichment relative to AAV9, Heart (NHP) [3] [fold] | Fold Enrichment relative to AAV9, Liver DNA (NHP) [4] [fold] | Fold Enrichment relative to AAV9, Liver RNA (NHP) [5] [fold] | Fold Enrichment relative to AAV9, Muscle (NHP) [6] [fold] | Fold Enrichment relative to AAV9, DRG (NHP) [7] [fold] | Fold Enrichment relative to AAV9, Brain (NHP) [8] [fold] | Fold Enrichment relative to AAV9, Heart (NHP) [9] [fold] | Fold Enrichment relative to AAV9, Liver DNA (NHP) [10] [fold] | Fold Enrichment relative to AAV9, Liver RNA (NHP) [11] [fold] | Fold Enrichment relative to AAV9, Muscle (NHP) [12] [fold] |
| --- | --- | --- | --- | --- | --- | --- | --- | --- | --- | --- | --- | --- |
| KTINGSGSPHCRVQNQQT | 0.000 | 0.000 | 0.000 | 1.203 | 31.043 | 0.000 |  |  |  |  |  |  |
| KTINGSGSPHFPFQNQQT |  |  |  |  |  |  | 0.000 | 0.000 | 0.000 | 3.715 | 10.322 | 0.000 |
| KTINGSGSPHFPWQNQQT | 0.000 | 0.000 | 0.000 | 1.731 | 53.587 | 0.000 |  |  |  |  |  |  |
| KTINGSGSPHFYRQNQQT | 0.000 | 0.000 | 0.000 | 9.342 | 31.724 | 0.000 |  |  |  |  |  |  |
| KTINGSGSPHGRYQNQQT |  |  |  |  |  |  | 0.000 | 0.000 | 0.000 | 0.778 | 10.028 | 0.000 |
| KTINGSGSPHIVWQNQQT | 0.000 | 0.000 | 0.000 | 6.056 | 58.021 | 0.000 |  |  |  |  |  |  |
| KTINGSGSPHKSGQNPQT |  |  |  |  |  |  | 0.000 | 0.000 | 0.000 | 11.790 | 11.014 | 0.000 |
| KTINGSGSPHLCTQNQQT | 0.000 | 0.000 | 0.000 | 2.489 | 11.176 | 0.000 |  |  |  |  |  |  |
| KTINGSGSPHLCVQNQQT | 0.000 | 0.000 | 0.000 | 1.428 | 19.030 | 0.000 |  |  |  |  |  |  |
| KTINGSGSPHLPTQNQQT | 0.000 | 0.000 | 0.000 | 3.127 | 20.704 | 0.000 |  |  |  |  |  |  |
| KTINGSGSPHLRWQNQQT | 0.000 | 0.000 | 0.000 | 9.649 | 21.014 | 0.000 |  |  |  |  |  |  |
| KTINGSGSPHLVYQNQQT | 0.000 | 0.000 | 0.000 | 1.045 | 14.196 | 0.000 |  |  |  |  |  |  |
| KTINGSGSPHMAFQNQQT | 0.000 | 0.000 | 0.000 | 0.542 | 17.644 | 0.000 |  |  |  |  |  |  |
| KTINGSGSPHPFVQNQQT | 0.000 | 0.000 | 0.000 | 1.286 | 12.091 | 0.000 |  |  |  |  |  |  |
| KTINGSGSPHPKRQNQQT | 0.000 | 0.000 | 0.000 | 2.355 | 23.055 | 0.000 |  |  |  |  |  |  |
| KTINGSGSPHPRKQNQQT | 0.000 | 0.000 | 0.000 | 3.248 | 12.249 | 0.000 |  |  |  |  |  |  |
| KTINGSGSPHPSCQNQQT | 0.000 | 0.000 | 0.000 | 2.790 | 27.796 | 0.000 |  |  |  |  |  |  |
| KTINGSGSPHQGCQNQQT | 0.000 | 0.000 | 0.000 | 1.037 | 17.676 | 0.000 |  |  |  |  |  |  |
| KTINGSGSPHRCCQNQQT | 0.000 | 0.000 | 0.000 | 2.213 | 19.084 | 0.000 |  |  |  |  |  |  |
| KTINGSGSPHRIKQNQQT | 0.000 | 0.000 | 0.000 | 3.064 | 21.720 | 0.000 |  |  |  |  |  |  |
| KTINGSGSPHRPWQNQQT | 0.000 | 0.000 | 0.000 | 4.936 | 16.869 | 0.000 |  |  |  |  |  |  |
| KTINGSGSPHRWLQNQQT | 0.000 | 0.000 | 0.000 | 6.882 | 28.147 | 0.000 |  |  |  |  |  |  |
| KTINGSGSPHRWTQNQQT | 0.000 | 0.000 | 0.000 | 0.844 | 12.490 | 0.000 |  |  |  |  |  |  |
| KTINGSGSPHSCHQNQQT | 0.000 | 0.000 | 0.000 | 8.562 | 56.242 | 0.000 |  |  |  |  |  |  |
| KTINGSGSPHSCPQNQQT | 0.000 | 0.000 | 0.000 | 1.776 | 16.701 | 0.000 |  |  |  |  |  |  |
